Experimental data from PubChem BioAssay AID248 (DTP/NCI, 2004).
“And” between values parts separate entries of the source, which are not always exact repeats. Equal values may be shown once. Inconclusive results and toxic doses are left out. Rule as the data show it: active = T/C of 150% or more; inactive = T/C below 125%.

Test system: L1210 leukemia ip in BDF1 mice, survival T/C
Test: NCI In Vivo Anticancer Drug Screen. Data for tumor model L1210 Leukemia (intraperitoneal) in B6D2F1 (BDF1) mice
Settings: endpoint: mean survival time, higher = longer survival
How it was run: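 Transplanted-tumor mice were given test agent; controls received vehicle only. Survival readings from the two groups were divided (treated over control).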

[1] = dose: 100.0 mg/kg/injection, schedule: Q01DX001 (ip), vehicle: Klucel (hydroxypropylcellulose) (HPC)
[2] = dose: 100.0 mg/kg/injection, schedule: Q01DX009 (ip), vehicle: saline
[3] = dose: 200.0 mg/kg/injection, schedule: Q01DX009 (ip), vehicle: saline
[4] = dose: 400.0 mg/kg/injection, schedule: Q01DX009 (ip), vehicle: saline
[5] = dose: 100.0 mg/kg/injection, schedule: Q01DX009 (ip), vehicle: saline with Tween-80
[6] = dose: 200.0 mg/kg/injection, schedule: Q01DX009 (ip), vehicle: saline with Tween-80
[7] = dose: 400.0 mg/kg/injection, schedule: Q01DX009 (ip), vehicle: saline with Tween-80
[8] = dose: 100.0 mg/kg/injection, schedule: Q04DX003 (ip), vehicle: saline with Tween-80
[9] = dose: 200.0 mg/kg/injection, schedule: Q04DX003 (ip), vehicle: saline with Tween-80
[10] = dose: 400.0 mg/kg/injection, schedule: Q04DX003 (ip), vehicle: saline with Tween-80
[11] = dose: 100.0 mg/kg/injection, schedule: Q01DX001 (ip), vehicle: saline
[12] = dose: 200.0 mg/kg/injection, schedule: Q01DX001 (ip), vehicle: saline
[13] = dose: 400.0 mg/kg/injection, schedule: Q01DX001 (ip), vehicle: saline

Measured: T/C

Clc1nc2ccccc2s1.Clc1nc2ccccc2s1.Clc1nc2ccccc2s1.Clc1nc2ccccc2s1.[Cl][Rh][Cl]
inactive: dose: 3.13 mg/kg/injection, schedule: Q04DX003 (ip), vehicle: distilled water + Tween-80 94 % of control | dose: 6.25 mg/kg/injection, schedule: Q04DX003 (ip), vehicle: distilled water + Tween-80 96 % of control | dose: 12.5 mg/kg/injection, schedule: Q04DX003 (ip), vehicle: distilled water + Tween-80 96 % of control | dose: 25.0 mg/kg/injection, schedule: Q04DX003 (ip), vehicle: distilled water + Tween-80 102 % of control | dose: 50.0 mg/kg/injection, schedule: Q04DX003 (ip), vehicle: distilled water + Tween-80 103 % of control | dose: 100.0 mg/kg/injection, schedule: Q04DX003 (ip), vehicle: distilled water + Tween-80 102 % of control | dose: 200.0 mg/kg/injection, schedule: Q04DX003 (ip), vehicle: distilled water + Tween-80 103 % of control

NC(=O)c1[nH]cnc1/N=N/N1CCCC1
inactive: dose: 125.0 mg/kg/injection, schedule: Q01DX Z (ip), vehicle: carboxymethylcellulose (CMC) 103 % of control | dose: 375.0 mg/kg/injection, schedule: Q01DX Z (ip), vehicle: carboxymethylcellulose (CMC) 105 % of control

CC(C)(C)c1ccc(OCCCOc2ccc(C(=O)O)cc2)cc1
inactive: [1] 97 % of control | dose: 100.0 mg/kg/injection, schedule: Q01DX009 (ip), vehicle: saline sonified 103 % of control | dose: 200.0 mg/kg/injection, schedule: Q01DX001 (ip), vehicle: Klucel (hydroxypropylcellulose) (HPC) 103 % of control | dose: 200.0 mg/kg/injection, schedule: Q01DX009 (ip), vehicle: saline sonified 118 % of control | dose: 400.0 mg/kg/injection, schedule: Q01DX001 (ip), vehicle: Klucel (hydroxypropylcellulose) (HPC) 100 % of control | dose: 400.0 mg/kg/injection, schedule: Q01DX009 (ip), vehicle: saline sonified 94 % of control

Nc1cccc(CSc2nc3nc[nH]c3c(=O)[nH]2)c1
inactive: dose: 25.0 mg/kg/injection, schedule: Q01DX001 (ip), vehicle: Klucel (hydroxypropylcellulose) (HPC) 102 % of control | dose: 50.0 mg/kg/injection, schedule: Q01DX001 (ip), vehicle: Klucel (hydroxypropylcellulose) (HPC) 100 % of control | [1] 102 % of control

O=C(O)/C=C/C(=O)NCCC(=O)O
inactive: [2] 114 % of control | [3] 115 % of control | [4] 109 % of control

CCP(=S)(CC)CCCCP(=S)(CC)CC
inactive: [5] 94 % of control | [6] 89 % of control | [7] 86 % of control

COc1ccc(OC)c(NC(=O)Oc2ccc(NC(C)=O)cc2)c1
inactive: dose: 100.0 mg/kg/injection, schedule: Q01DX009 (ip), vehicle: Klucel (hydroxypropylcellulose) (HPC) 104 % of control | dose: 200.0 mg/kg/injection, schedule: Q01DX009 (ip), vehicle: Klucel (hydroxypropylcellulose) (HPC) 102 % of control | dose: 400.0 mg/kg/injection, schedule: Q01DX009 (ip), vehicle: Klucel (hydroxypropylcellulose) (HPC) 96 % of control

COCc1nc2ccccc2[nH]1
inactive: [8] 106 % of control | [9] 97 % of control | [10] 93 % of control

COc1ccc(NC(C)=O)c(C)c1
inactive: [5] 99 % of control | [8] 112 % of control | [6] 96 % of control | [9] 119 % of control | [7] 103 % of control | [10] 96 % of control

O=C1CCC(=O)N1SC(Cl)(Cl)Cl
inactive: dose: 7.5 mg/kg/injection, schedule: Q01DX009 (ip), vehicle: saline 101 % of control | dose: 15.0 mg/kg/injection, schedule: Q01DX009 (ip), vehicle: saline 101 % of control | dose: 30.0 mg/kg/injection, schedule: Q01DX009 (ip), vehicle: saline 106 % of control | dose: 45.0 mg/kg/injection, schedule: Q01DX009 (ip), vehicle: saline 99 % of control | dose: 70.0 mg/kg/injection, schedule: Q01DX009 (ip), vehicle: saline 92 % of control | dose: 100.0 mg/kg/injection, schedule: Q01DX001 (ip), vehicle: other 103 % of control | dose: 100.0 mg/kg/injection, schedule: Q04DX002 (ip), vehicle: saline with Tween-80 87 % of control | dose: 105.0 mg/kg/injection, schedule: Q01DX009 (ip), vehicle: saline 89 % of control | dose: 200.0 mg/kg/injection, schedule: Q01DX001 (ip), vehicle: other 95 % of control | dose: 240.0 mg/kg/injection, schedule: Q01DX009 (ip), vehicle: saline 88 % of control | dose: 300.0 mg/kg/injection, schedule: Q01DX001 (ip), vehicle: other 98 % of control | dose: 360.0 mg/kg/injection, schedule: Q01DX009 (ip), vehicle: saline 86 % of control

OCCc1ccccc1O
inactive: dose: 50.0 mg/kg/injection, schedule: Q01DX001 (ip), vehicle: saline 94 % of control | [11] 94 % of control | [12] 100 % of control | [13] 100 % of control

COC(=O)/C=C/c1ccc([N+](=O)[O-])cc1
inactive: [8] 94 % of control and 96 % of control | [9] 96 % of control and 97 % of control | [10] 92 % of control

CC1NC(=O)OC12CCCCC2 (configuration not stated)
inactive: dose: 100.0 mg/kg/injection, schedule: Q01DX001 (ip), vehicle: saline with Tween-80 96 % of control | dose: 200.0 mg/kg/injection, schedule: Q01DX001 (ip), vehicle: saline with Tween-80 92 % of control | dose: 400.0 mg/kg/injection, schedule: Q01DX001 (ip), vehicle: saline with Tween-80 92 % of control

CC[N+](C)(CC)CCNC(=O)Nc1ccc(C)c(NC(=O)NCC[N+](C)(CC)CC)c1
inactive: dose: 1.56 mg/kg/injection, schedule: Q01DX009 (ip), vehicle: saline 97 % of control | dose: 3.12 mg/kg/injection, schedule: Q01DX009 (ip), vehicle: saline 95 % of control | dose: 3.12 mg/kg/injection, schedule: Q04DX002 (ip), vehicle: saline 90 % of control

NC(N)=NN=C(c1ccc(F)cc1)c1ccc(F)cc1
inactive: dose: 4.0 mg/kg/injection, schedule: Q01DX Z (oral), vehicle: carboxymethylcellulose (CMC) 111 % of control | dose: 8.0 mg/kg/injection, schedule: Q01DX Z (oral), vehicle: carboxymethylcellulose (CMC) 104 % of control | dose: 10.0 mg/kg/injection, schedule: Q01DX001 (ip), vehicle: carboxymethylcellulose (CMC) 100 % of control

COc1ccc(/C2=C/CCCCCC2)cc1
inactive: dose: 50.0 mg/kg/injection, schedule: Q01DX009 (ip), vehicle: acetone 87 % of control | dose: 100.0 mg/kg/injection, schedule: Q01DX009 (ip), vehicle: acetone 92 % of control | dose: 100.0 mg/kg/injection, schedule: Q04DX003 (ip), vehicle: acetone 96 % of control | dose: 200.0 mg/kg/injection, schedule: Q01DX009 (ip), vehicle: acetone 95 % of control | dose: 200.0 mg/kg/injection, schedule: Q04DX003 (ip), vehicle: acetone 103 % of control | dose: 400.0 mg/kg/injection, schedule: Q04DX003 (ip), vehicle: acetone 101 % of control

COC(O)C(Cl)(Cl)Cl (configuration not stated)
inactive: [11] 101 % of control | [2] 97 % of control | dose: 100.0 mg/kg/injection, schedule: Q04DX003 (ip), vehicle: saline 96 % of control | [12] 97 % of control | [3] 103 % of control | dose: 200.0 mg/kg/injection, schedule: Q04DX003 (ip), vehicle: saline 100 % of control | [13] 109 % of control | [4] 103 % of control | dose: 400.0 mg/kg/injection, schedule: Q04DX003 (ip), vehicle: saline 104 % of control

O=C(O)C1CCC(=O)C2CCCCC12 (configuration not stated)
inactive: [11] 97 % of control | [12] 94 % of control | [13] 95 % of control
